{
  "source": "patent US11696960B2",
  "about": "“Methods and compounds for detection and binding of aldehydes” (UNIVERSITY OF OTTAWA, priority 2017, dated 2023)",
  "key": {"[1]": {"experiment": "Hydrazone formation with glucose under physiological conditions (interference test)", "details": "37° C., 1 PBS, pH=7.4, within 4 h of incubation"}, "[2]": {"experiment": "Hydrazone formation kinetics and reaction completion in 1×PBS at 37° C.", "method": "(§1) Repeating the methodology, however at 37° C. in 100% 1×PBS, determined the kobs for the reaction of 5-methoxy N-amino anthranilic acid (2f) and related analogs with 2-formylbenzenesulfonic acid (FIG. 13) and acetone.\n(§2) Hydrazone stability was assayed both spectrophotometrically (FIG. 13, Panel A), as well as by HPLC (FIG. 13, Panel B). […] Since the signal produced by Hydrazo-CEST depends on the hydrazone form of the probe, the faster-forming and longer-lived the hydrazone product under physiological conditions, the better the imaging signal evolved and the more potentially sensitive the imaging technique."}, "[3]": {"experiment": "Hydrazo-CEST MRI phantom imaging (3 T and 7 T) and in situ hydrazone formation", "method": "In the upper panel, a Phantom image and Z-spectra of hydrazine 2f and hydrazones 3f and 4f were acquired at the indicated field strength, 37° C., pH 7.4, and 40 mM concentration.\nValues indicate the % MTRasym±the standard deviation of the off-resonance measurements once the system had reached steady state.\nThe kinetics of Hydrazo-CEST signal production through hydrazone formation were also evaluated in the MRI at 37° C. in 1×PBS at pH=7.4 (FIG. 28). Either PBS or a PBS solution of 2-formylbenzenesulfonic acid at a final concentration of 20 mM was injected into the imaging phantom, and Z-spectra were acquired every 4.5 min to monitor hydrazone formation.\nA single saturation peak at 6.4 ppm was observed 4.5 min after aldehyde injection. […] This MRI data confirms that Hydrazo-CEST probes are rapidly activated by aldehydes under physiological conditions, and are readily detectable by 7 T MRI. Both hydrazine and hydrazone functionalities are utilized in medications broadly spanning indications from anti-infectives and anti-parasitics, to anti-cancer agents."}, "[4]": {"experiment": "Preliminary in vitro toxicity assays"}, "[5]": {"experiment": "Hydrazone formation kinetics and reaction completion in 1×PBS at 37° C.", "details": "for kobs: pseudo-first order, carbonyl o-sulfobenzaldehyde", "method": "(§3) The hydrazone peak is shown (r.t.=17.5 min for MeONA^3 and 17.2 min for MeOPH) at the time points indicated, showing a loss of the MeOPH-derived hydrazone but stability of the MeONA^3-derived product over time. All reactions were performed in 1×PBS at 37° C., and points represent mean±s.d. for n=3 trials\nFIG. 13, discussed above, illustrates that the o-carboxylic acid contributes to substantial reaction completion as well as extended stability of the product hydrazone under physiological conditions. […] The hydrazone peak is shown (r.t.=17.5 min for 2f and 17.2 min for MeOPH) at the time points indicated. All reactions were performed in 1×PBS at 37° C., and points represent mean±s.d. for n=3 trials.\nas §1, §2"}, "[6]": {"experiment": "Hydrazone formation kinetics under pseudo-first order conditions in 1×PBS at 37° C.", "details": "carbonyl acetaldehyde", "method": "The carboxylic acid ortho to the hydrazine is critical to the stability of the formed hydrazone product. All reactions were performed in 1×PBS at 37° C., and points represent mean±s.d. for n=3 trials. […]"}, "[7]": {"experiment": "Z-spectra / CEST signal production (% MTRasym) on 300 MHz NMR", "details": "for CEST-MRI signal generation (in words): Z-spectra, 37° C., pH 7.4, 40 mM; for CEST signal production: hydrazone with o-sulfobenzaldehyde, Z-spectrum (FIG. 19)", "method": "FIG. 27 provides Z-spectra of compounds 8b, 10a, 12, and 11 for Panels A to D, respectively. […] The absence of the hydrazone proton through the formation of a pyrazole also completely abolishes CEST-MRI signal (Panel D). Raw data points (S/So are shown as black circles), exchangeable proton and water Lorentzian curves, and CEST-MRI signal production MTRasym (%), are also shown. All Z-spectra are obtained at 37° C. and pH 7.4 with 40 mM compound solutions in 10:1 PBS:D2O unless otherwise indicated.\nElectron donating (OH, OCH3) and electron-withdrawing (I, SO3, NO2) substituents were appended at the 5-position of N-amino anthranilic acid (compounds 2b-2f), both acetaldehyde (4b-4f) or 2-formylbenzenesulfonic acid-derived hydrazones (3b-3f) were prepared, and Z-spectra were acquired in 1:10 D2O:PBS at pH 7.4 on a 300 MHz NMR.\nIn this way, per molar signal output could be compared across hydrazone series to examine electronic contributions to Hydrazo-CEST.\n(§4) The MRI contrast produced by CEST probes is dependent upon voxel-wise concentration, however previous investigations have reported non-linear concentration relationships for CEST contrast agents. In order to evaluate this dependence for Hydrazo-CEST compounds, Z-spectra were acquired for acetaldehyde (4b-4f) and 2-formylbenzenesulfonic acid-derived hydrazones (3b-3f) on a 300 MHz NMR from 5 mM to 40 mM, or the maximum solubility of the compound in neutral buffer. The dynamic range for Hydrazo-CEST signal production from each compound was then plotted using the maximum signal for each compound (6.4±0.4 ppm). Within the series of acetaldehyde-derived hydrazones, the 5-methoxy- (4f) and 5-hydroxy-substituted (4e) analogs had the broadest dynamic range for imaging signal, with the 5-methoxy-derivative showing the higher absolute % MTRasym and the most linear concentration-dependent signal production (R^2=0.98).\nZ-spectra were acquired on a 300 MHz NMR in 10:1 PBS:D2O at 37° C., pH 7.4, at 40 mM, or the indicated concentration providing maximum solubility. Hydrazones were formed between 2f and (Panel A) 3-aminopropanal, (Panel B) crotonaldehyde, (Panel C) glyceraldehyde, and (Panel D) pyruvate."}, "[8]": {"details": "reaction with butanal, 1:10 DMF:PBS solution; cited from earlier work"}, "[9]": {"experiment": "Solubility of hydrazones in buffer", "type": "physicochemical", "method": "as §4\nIn addition to local probe concentrations, micro-environmental pH can modify CEST signal production, as pH directly impacts ksw. The effect of pH on % MTRasym was evaluated for the unsubstituted, 5-hydroxy-, and 5-methoxy-substituted hydrazones derived from acetaldehyde (4a, 4e, 4f) and 2-formylbenzenesulfonic acid (3a, 3e, 3f). […] The hydroxy- and methoxy-substituted aryl-hydrazones (3e, 3f) gave better CEST signal production from pH 6.5-8.0, but both were insoluble at 40 mM at pH 6.0. The differential pH responses associated with the Hydrazo-CEST probes studied are justified by the higher predicted electron density around the ring-proximal nitrogen of the aliphatic versus aromatic hydrazones, which would favor the protonated form of the hydrazo moiety at higher pH values."}, "[10]": {"experiment": "Hydrazone product stability (spectrophotometric, HPLC)", "type": "physicochemical", "details": "1×PBS, 37° C.", "method": "as §3\nThe carboxylic acid ortho to the hydrazine is critical to the stability of the formed hydrazone product. All reactions were performed in 1×PBS at 37° C., and points represent mean±s.d. for n=3 trials.\nas §2"}, "[11]": {"system": "hippocampal CA3 neurodegeneration", "details": "TMT rat model, Wood et al. (2006); cited from earlier work"}, "[12]": {"experiment": "Trapping of MDA by N-amino anthranilic acid probe, monitored by 1H-NMR and fluorimetry", "details": "incubation of NA^3 acid probe and MDA, 1H-NMR", "method": "N-amino anthranilic acids can act as specific sensors for malondialdehyde. N-amino anthranilic acid reacts rapidly with MDA to form a fluorescent pyrazole. A proposed 2-step reaction scheme for the formation of the MDA-derived pyrazole (5) from 5-methoxy-N-amino anthranilic acid (3) is shown:\nThe formation of the MDA-derived pyrazole ring was monitored by ^1H-NMR. Hydrazone (4) formation happens within less than 1 min of incubation of the NA^3 acid probe and MDA. The pyrazole product (5) forms rapidly as well, and reaches completion within 20 min. The fluorescence ‘turn-on’ of the N-amino anthranilic acid probe is specific for MDA."}, "[13]": {"experiment": "Time-lapse imaging of acetaldehyde-derived hydrazone formation in PBS", "details": "room temperature", "text": "N-Amino anthranilic esters can be fast-reacting aldehyde sensors. N-amino anthranilate methyl ester reacts rapidly with endogenous reactive aldehydes. The reaction of 5-methoxy-N-amino anthranilate methyl ester (1) with a reactive aldehyde results in the formation of […] in PBS at room temperature is shown: […]"}},
  "data": [
    {"smiles": "COc1ccc(NN)c(C(=O)O)c1", "note": "[Compound 2f, 5-methoxy N-amino anthranilic acid]", "values": [
      {"measurement": "hydrazone formation with D-glucose", "setting": "[1]", "value": "no hydrazone formation"},
      {"measurement": "kobs", "setting": "[2]; pseudo-first order, 37° C., carbonyl acetone", "value": "0.017 ± 0.0004", "unit": "min⁻¹"},
      {"measurement": "product formation", "setting": "[2]; reaction with acetone, 37° C. (data not shown)", "value": "< 25", "unit": "%"},
      {"measurement": "maximum plateau % MTRasym", "setting": "[3]; 40 mM hydrazine plus 20 mM 2-formylbenzenesulfonic acid, 37° C., 1×PBS, pH 7.4", "value": "4.6±0.7", "unit": "% MTRasym"},
      {"measurement": "CEST contrast in MRI (in words)", "setting": "[3]; 37° C., pH 7.4, 40 mM", "value": "produced no CEST contrast"},
      {"measurement": "Hydrazo-CEST signal as share of maximal signal", "setting": "[3]; within the first 4.5 min after aldehyde injection", "value": "> 50", "unit": "%"},
      {"measurement": "in vitro toxicity", "setting": "[4]", "value": "initial safety"},
      {"measurement": "kobs", "setting": "[5]", "value": "0.112 ± 0.03", "unit": "min⁻¹"},
      {"measurement": "reaction completion (hydrazone formation)", "setting": "[5]; within 30 min of initiation", "value": "~90", "unit": "%"},
      {"measurement": "kobs", "setting": "[6]", "value": "0.012 ± 0.001", "unit": "min⁻¹"},
      {"measurement": "CEST-MRI signal generation (in words)", "setting": "[7]", "value": "little CEST-MRI signal"}
    ]},
    {"smiles": "O=C(O)c1cccc(O)c1", "note": "[Compound 12, 3-Hydroxybenzoic acid, reference compound]", "values": [
      {"measurement": "CEST-MRI signal generation (in words)", "setting": "[7]", "value": "nearly completely abolishes signal production"}
    ]},
    {"smiles": "NNc1ccccc1C(=O)O", "note": "[Compound 101, N-amino anthranilic acid]", "values": [
      {"measurement": "pseudo-first-order rate constant (kobs)", "setting": "[8]", "value": "1.5 ± 0.2", "unit": "min⁻¹"}
    ]},
    {"smiles": "C/C=N/Nc1ccc(OC)cc1C(=O)O", "note": "[Compound 4f]", "values": [
      {"measurement": "solubility", "setting": "[9]; 40 mM, pH 6.5", "value": "not soluble"},
      {"measurement": "MTRasym", "setting": "[7]; 5 mM", "value": 9, "unit": "%"},
      {"measurement": "CEST-MRI signal generation (in words)", "setting": "[7]", "value": "substantial signal"}
    ]},
    {"smiles": "C/C=N/Nc1ccc(OC)cc1C(=O)OC", "note": "[Compound 8b, reference compound]", "values": [
      {"measurement": "CEST-MRI signal generation (in words)", "setting": "[7]", "value": "complete loss of the CEST effect"},
      {"measurement": "CEST-MRI signal generation (in words)", "setting": "[7]; listed as compound 302", "value": "prevents any CEST-MRI signal generation"}
    ]},
    {"smiles": "COc1ccc(NN)cc1.Cl.Cl", "note": "[Compound 9, 4-methoxyphenyl hydrazine dihydrochloride, reference compound]", "values": [
      {"measurement": "kobs", "setting": "[5]", "value": "0.119 ± 0.02", "unit": "min⁻¹"}
    ]},
    {"smiles": "CC=NNc1ccccc1C(=O)O", "note": "[Compound 4a]", "values": [
      {"measurement": "solubility", "setting": "[9]; neutral buffer", "value": "limited solubility beyond 20 mM"},
      {"measurement": "solubility", "setting": "[9]; pH 6.0-8.0", "value": "completely soluble"}
    ]},
    {"smiles": "O=C(O)c1ccccc1NN=Cc1ccccc1S(=O)(=O)O", "note": "[Compound 3a]", "values": [
      {"measurement": "CEST signal production", "setting": "[7]", "value": "~5", "unit": "%"}
    ]},
    {"smiles": "COc1ccc(NN=Cc2ccccc2S(=O)(=O)O)c(C(=O)O)c1", "note": "[Compound 3f]", "values": [
      {"measurement": "solubility", "setting": "[9]; 40 mM, pH 6.0", "value": "insoluble"},
      {"measurement": "stability of hydrazone product", "setting": "[10]", "value": "long-term stability"}
    ]},
    {"smiles": "O=C(O)c1cccnc1N/N=C/c1ccccc1S(=O)(=O)O", "note": "[Compound 319]", "values": [
      {"measurement": "CEST signal production", "setting": "[7]", "value": "~25", "unit": "%"}
    ]},
    {"smiles": "ONCc1ccccc1", "note": "[N-benzylhydroxylamine]", "values": [
      {"measurement": "protection against neurodegeneration", "setting": "[11]", "value": "provided protection against neurodegeneration"}
    ]},
    {"smiles": "COc1ccc(N/N=C/C(O)CO)c(C(=O)O)c1", "note": "(stereo not shown) [Compound 5c]", "values": [
      {"measurement": "CEST-MRI signal generation (in words)", "setting": "[7]", "value": "limited signal production"}
    ]},
    {"smiles": "COc1ccc(-n2cccn2)c(C(=O)O)c1", "note": "[Compound 5]", "values": [
      {"measurement": "CEST-MRI signal generation (in words)", "setting": "[7]", "value": "Complete abolishment of signal production"},
      {"measurement": "time to completion of pyrazole product formation", "setting": "[12]", "value": "≤ 20", "unit": "min"}
    ]},
    {"smiles": "COC(=O)c1cc(OC)ccc1NN", "note": "[Compound 7, 5-methoxy-N-amino anthranilate methyl ester, reference compound]", "values": [
      {"measurement": "time to hydrazone formation after aldehyde addition", "setting": "[13]", "value": "≤ 1", "unit": "s"},
      {"measurement": "kobs", "setting": "[5]", "value": "0.0008 ± 5.5e-05", "unit": "min⁻¹"}
    ]}
  ]
}
